38 molecules from patent US20260258050A1, “IMMUNOMODULATOR” (HITGEN INC., priority 2023, published 2026) can be followed below.

For one assay, the target named is T1, Human IL-17A (Homo sapiens, UniProt Q16552).
T1 sequence (Q16552 20-155 limits assumed): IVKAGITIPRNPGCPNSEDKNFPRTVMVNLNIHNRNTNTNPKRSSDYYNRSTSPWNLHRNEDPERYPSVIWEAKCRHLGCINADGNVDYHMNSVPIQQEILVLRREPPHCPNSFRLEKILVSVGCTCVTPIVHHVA
As to the kind of experiment: Inhibition of human IL-17A protein-induced GROα/CXCL1 production in HT-29 cells. Format: cell-based. Also noted: purchased R&D 317-ILB; host or cells: added exogenously to HT-29 cells. As to conditions: 30 ng/mL human IL-17A protein, 48 h, GROα in supernatant by ELISA kit, read-out: Inhibitory IC50 of compounds on HT-29 cell GROα/CXCL1. The procedure, abridged: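 Compound dilutions were preincubated 1 h at 37 °C with 30 ng/mL human IL-17A, then added to HT-29 cells (5×10^4/well) for 48 h at 37 °C. GROα in supernatant quantified by ELISA; IC50 for inhibition of its production. Positive control: IL-17A antibody at […].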

A further assay concerns the target T2, Human IL-17AF (Homo sapiens, UniProt Q16552+Q96PD4).
T2 construct: purchased Sino Biological Inc. CT047-H08H
T2 sequence (Q16552 24-155): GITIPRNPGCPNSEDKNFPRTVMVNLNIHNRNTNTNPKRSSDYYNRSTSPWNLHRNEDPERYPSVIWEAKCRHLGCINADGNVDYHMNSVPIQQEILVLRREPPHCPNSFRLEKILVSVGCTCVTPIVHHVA
T2 sequence (Q96PD4 31-163): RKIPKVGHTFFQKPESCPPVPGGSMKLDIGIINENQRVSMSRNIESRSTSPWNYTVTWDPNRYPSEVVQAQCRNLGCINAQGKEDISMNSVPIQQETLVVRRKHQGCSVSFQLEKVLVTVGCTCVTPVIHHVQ
As to the kind of experiment: IL-17AF ELISA (competitive ELISA, IL-17AF/IL-17Ra receptor-ligand binding). As to conditions: human IL-17AF coated plate, human IL-17Ra, read-out: IC50, inhibitory activity of compounds on human IL-17AF. The procedure, abridged: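 Inhibitors were first pre-incubated 10 min at 25 °C with plate-bound IL-17AF (coated at 0.625 μg/ml, PBS pH 7.4) before a 30-min exposure to IL-17Ra added from a 100 nM solution. Receptor capture read via anti-Fc HRP, TMB, A450. Residual activity normalized to blank/DMSO wells; IC50 by log(inhibitor)-normalized response, variable slope.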

The structures appear in SMILES notation.

Turning to `[2H]C([2H])(C1CC1)n1nccc1C(=O)N[C@H](C(=O)Nc1cc2c(cc1F)-c1c(n[nH]c1C)CCOC2)C(C1CC1)C1CC1` [compound 76], the IC50 on Human IL-17A was 100 to 500 nM; on Human IL-17AF, at most 100 nM.
As for `Cc1[nH]nc2c1-c1cc(F)c(NC(=O)[C@@H](NC(=O)c3ccnn3CCC(O)C(F)(F)F)C(C3CC3)C3CC3)cc1COCC2` (stereo partly shown) [compound 81], the IC50 at Human IL-17A is 100 to 500 nM; on Human IL-17AF it was at most 100 nM.
On to `Cc1[nH]nc2c1-c1cc(F)c(NC(=O)[C@@H](NC(=O)c3ccnn3CCCC(F)(F)F)C(C3CC3)C3CC3)cc1COCC2` [compound 84], for which the IC50 at Human IL-17A is at most 100 nM; on Human IL-17AF, 100 to 500 nM.
Regarding `Cc1[nH]nc2c1-c1cc(F)c(NC(=O)[C@@H](NC(=O)c3ccnn3CCCF)C(C3CC3)C3CC3)cc1COCC2` [compound 86], the IC50 at Human IL-17A and on Human IL-17AF was at most 100 nM each time.
With `Cc1[nH]nc2c1-c1cc(F)c(NC(=O)[C@@H](NC(=O)c3ccnn3CC(C)(F)F)C(C3CC3)C3CC3)cc1COCC2` [compound 87], the IC50 on Human IL-17A and on Human IL-17AF was 100 to 500 nM throughout.
Regarding `Cc1[nH]nc2c1-c1cc(F)c(NC(=O)[C@@H](NC(=O)c3ccnn3CCC(F)(F)F)C(C3CC3)C3CC3)cc1COCC2` [compound 88], the IC50 on Human IL-17A was at most 100 nM; at Human IL-17AF, 100 to 500 nM.
For the molecule `[2H]C([2H])([2H])C([2H])(n1nccc1C(=O)N[C@H](C(=O)Nc1cc2c(cc1F)-c1c(n[nH]c1C)CCOC2)C(C1CC1)C1CC1)C([2H])([2H])[2H]` [compound 89], the IC50 was at most 100 nM on Human IL-17A and 100 to 500 nM on Human IL-17AF.
As for `[2H]C([2H])([2H])C([2H])([2H])n1nccc1C(=O)N[C@H](C(=O)Nc1cc2c(cc1F)-c1c(n[nH]c1C)CCOC2)C(C1CC1)C1CC1` [compound 90], the IC50 at Human IL-17A and at Human IL-17AF was 100 to 500 nM in each case.
Consider `Cc1[nH]nc2c1-c1cc(F)c(NC(=O)[C@@H](NC(=O)c3ccnn3CCOC(C)C)C(C3CC3)C3CC3)cc1COCC2` [compound 98], for which the IC50 on Human IL-17A and at Human IL-17AF was 100 to 500 nM in each case.
As to `COCC(COC)n1nccc1C(=O)N[C@H](C(=O)Nc1cc2c(cc1F)-c1c(n[nH]c1C)CCOC2)C(C1CC1)C1CC1` [compound 99], the IC50 at Human IL-17A and at Human IL-17AF was 100 to 500 nM throughout.
For `CCOCCn1nccc1C(=O)N[C@H](C(=O)Nc1cc2c(cc1F)-c1c(n[nH]c1C)CCOC2)C(C1CC1)C1CC1` [compound 100], the IC50 on Human IL-17A was 100 to 500 nM; at Human IL-17AF, at most 100 nM.
In the same order, the values of `Cc1[nH]nc2c1-c1cc(F)c(NC(=O)[C@@H](NC(=O)c3ccnn3C[C@@H]3C[C@H]3F)C(C3CC3)C3CC3)cc1COCC2` [compound 101] are at most 100 nM and at most 100 nM.
In the case of `Cc1[nH]nc2c1-c1cc(F)c(NC(=O)[C@@H](NC(=O)c3ccnn3CCOC3CC3)C(C3CC3)C3CC3)cc1COCC2` [compound 102], the IC50 on Human IL-17A is at most 100 nM; at Human IL-17AF, 100 to 500 nM.
In the case of `Cc1[nH]nc2c1-c1cc(F)c(NC(=O)[C@@H](NC(=O)c3ccnn3CCOCC(F)(F)F)C(C3CC3)C3CC3)cc1COCC2` [compound 104], the IC50 at Human IL-17A was at most 100 nM; at Human IL-17AF, 100 to 500 nM.
Regarding `Cc1[nH]nc2c1-c1cc(F)c(NC(=O)[C@@H](NC(=O)c3cnnn3CCOC(F)F)C(C3CC3)C3CC3)cc1COCC2` [compound 108], the IC50 at Human IL-17A and at Human IL-17AF was 100 to 500 nM throughout.
`Cc1[nH]nc2c1-c1cc(F)c(NC(=O)[C@@H](NC(=O)c3ccnn3CCOC(C)(C)C)C(C3CC3)C3CC3)cc1COCC2` [compound 113]: the IC50 at Human IL-17A and on Human IL-17AF was 100 to 500 nM throughout.
In the case of `Cc1[nH]nc2c1-c1cc(F)c(NC(=O)[C@@H](NC(=O)c3ccnn3CC3(C#N)CC3)C(C3CC3)C3CC3)cc1COCC2` [compound 114], the IC50 was 100 to 500 nM on Human IL-17A and at most 100 nM at Human IL-17AF.
On the same counts, the results for `Cc1[nH]nc2c1-c1cc(F)c(NC(=O)[C@@H](NC(=O)c3ccnn3CC3COC3)C(C3CC3)C3CC3)cc1COCC2` [compound 115] are 100 to 500 nM and 100 to 500 nM.
As to `Cc1[nH]nc2c1-c1cnc(NC(=O)[C@@H](NC(=O)c3ccnn3CCCF)C(C3CC3)C3CC3)cc1COCC2` [compound 124], the results for the IC50 at Human IL-17A and at Human IL-17AF were at most 100 nM and 100 to 500 nM, respectively.
In the case of `Cc1[nH]nc2c1-c1cc(F)c(NC(=O)[C@@H](NC(=O)c3ccnn3C(C)C)C(C3CC3)C3CC3)cc1CN(CC1CC1)CC2` [compound 166], the IC50 at Human IL-17A and at Human IL-17AF was 100 to 500 nM in each case.
Take `Cc1[nH]nc2c1-c1cc(F)c(NC(=O)[C@@H](NC(=O)c3ccnn3C(C)C)C(C3CC3)C3CC3)cc1CN(C1CCOCC1)C(=O)C2` [compound 167]: the results for the IC50 at Human IL-17A and at Human IL-17AF were at most 100 nM and 100 to 500 nM, respectively.
For the molecule `Cc1[nH]nc2c1-c1cc(F)c(NC(=O)[C@@H](NC(=O)c3ccnn3C(C)C)C(C3CC3)C3CC3)cc1CN(C1CCC(F)(F)CC1)C(=O)C2` [compound 168], the IC50 on Human IL-17A was at most 100 nM; at Human IL-17AF, 100 to 500 nM.
In the same order, the values of `Cc1[nH]nc2c1-c1cc(F)c(NC(=O)[C@@H](NC(=O)c3ccnn3C(C)C)C(C3CC3)C3CC3)cc1CN(C1CC(F)(F)C1)C(=O)C2` [compound 169] are at most 100 nM and at most 100 nM.
For `Cc1[nH]nc2c1-c1cc(F)c(NC(=O)[C@@H](NC(=O)c3ccnn3C(C)C)C(C3CC3)C3CC3)cc1CN(C1CCC1)C(=O)C2` [compound 170], the IC50 on Human IL-17A and at Human IL-17AF was at most 100 nM in each case.
Consider `Cc1[nH]nc2c1-c1cc(F)c(NC(=O)[C@@H](NC(=O)c3ccnn3C(C)C)C(C3CC3)C3CC3)cc1CN(C1CCOCC1)CC2` [compound 174], for which the IC50 on Human IL-17A was at most 100 nM; at Human IL-17AF, 100 to 500 nM.
Turning to `Cc1[nH]nc2c1-c1cc(F)c(NC(=O)[C@@H](NC(=O)c3ccnn3C(C)C)C(C3CC3)C3CC3)cc1CN(C1CC(F)(F)C1)CC2` [compound 176], the IC50 at Human IL-17A and at Human IL-17AF was at most 100 nM in each case.
`Cc1[nH]nc2c1-c1cnc(NC(=O)[C@@H](NC(=O)c3ccnn3C(C)C)C(C3CC3)C3CC3)cc1CN(Cc1ccccc1)C(=O)C2` [compound 182]: the IC50 on Human IL-17A and at Human IL-17AF was 100 to 500 nM throughout.
On to `Cc1[nH]nc2c1-c1cnc(NC(=O)[C@@H](NC(=O)c3ccnn3C(C)C)C(C3CC3)C3CC3)cc1CN(C1CC1)C(=O)C2` [compound 191], for which the IC50 on Human IL-17A and at Human IL-17AF was at most 100 nM throughout.
For `Cc1[nH]nc2c1-c1cnc(NC(=O)[C@@H](NC(=O)c3ccnn3C(C)C)C(C3CC3)C3CC3)cc1CN(CC(F)F)C(=O)C2` [compound 192], the IC50 on Human IL-17A and on Human IL-17AF was at most 100 nM throughout.
For the molecule `Cc1[nH]nc2c1-c1cnc(NC(=O)[C@@H](NC(=O)c3ccnn3C(C)C)C(C3CC3)C3CC3)cc1CN(CC(C)(F)F)C(=O)C2` [compound 193], the IC50 at Human IL-17A and at Human IL-17AF was at most 100 nM in each case.
`Cc1[nH]nc2c1-c1cnc(NC(=O)[C@@H](NC(=O)c3ccnn3C(C)C)C(C3CC3)C3CC3)cc1CN(C1CC(F)(F)C1)C(=O)C2` [compound 194]: the IC50 at Human IL-17A is at most 100 nM; at Human IL-17AF it was 100 to 500 nM.
In the same order, the values of `Cc1[nH]nc2c1-c1cnc(NC(=O)[C@@H](NC(=O)c3ccnn3C(C)C)C(C3CC3)C3CC3)cc1CN(C(C)C)C(=O)C2` [compound 195] are at most 100 nM and 100 to 500 nM.
With `CC(=O)N1CCc2n[nH]c(C)c2-c2cnc(NC(=O)[C@@H](NC(=O)c3ccnn3C(C)C)C(C3CC3)C3CC3)cc2C1` [compound 196], the IC50 on Human IL-17A and on Human IL-17AF was 100 to 500 nM each time.
Consider `Cc1[nH]nc2c1-c1cnc(NC(=O)[C@@H](NC(=O)c3ccnn3C(C)C)C(C3CC3)C3CC3)cc1CN(C1CC1)CC2` [compound 198], for which the figures for the IC50 at Human IL-17A and on Human IL-17AF were at most 100 nM and 100 to 500 nM, respectively.
For the molecule `Cc1[nH]nc2c1-c1cnc(NC(=O)[C@@H](NC(=O)c3ccnn3C(C)C)C(C3CC3)C3CC3)cc1CN(CC(C)(F)F)CC2` [compound 199], the IC50 at Human IL-17A and at Human IL-17AF was at most 100 nM each time.
For `Cc1[nH]nc2c1-c1cnc(NC(=O)[C@@H](NC(=O)c3ccnn3C(C)C)C(C3CC3)C3CC3)cc1CN(C(C)C)CC2` [compound 200], the IC50 on Human IL-17A and on Human IL-17AF was 100 to 500 nM each time.
`Cc1[nH]nc2c1-c1cnc(NC(=O)[C@@H](NC(=O)c3ccnn3C(C)C)C(C3CC3)C3CC3)cc1CN(C1CCC1)CC2` [compound 201]: the values for the IC50 on Human IL-17A and at Human IL-17AF were at most 100 nM and 100 to 500 nM, respectively.
With `Cc1[nH]nc2c1-c1cnc(NC(=O)[C@@H](NC(=O)c3ccnn3C(C)C)C(C3CC3)C3CC3)cc1CN(CC(F)F)CC2` [compound 202], the IC50 at Human IL-17A is at most 100 nM; at Human IL-17AF, 100 to 500 nM.
